Each structure is given as a SMILES string. Where a name gives a salt, the structure may show the parent alone.

Results on 2 compounds are retold here after US11466020B2, “Compounds and compositions for inhibition and elimination of Zika infection and uses for same” (Cornell University, priority 2017, dated 2022).

The test has as its system ZIKV MR766. As to the kind of experiment: Elimination of ZIKV from infected hNPCs (drug applied 2 h post infection, 3 days drug, 3 days drug-free). Type of test: cell-based, Zika virus. The conditions noted are these: for ZIKV infection of hNPCs at day 6: 3 days treatment followed by 3 days culture without drug; for ZIKV infection rate of hNPCs at day 3: day 3 of treatment. As to the method: (A) Scheme to evaluate the elimination of ZIKV. At day 0, hNPCs were infected with ZIKV for 2 h. After removal of ZIKV infection medium, hNPCs were treated with drug candidates. At day 3, the culture medium was changed to fresh medium without compounds. The cells were maintained in drug-free culture until day 6 and used for immunohistochemistry and qRT-PCR. (B and C) Inhibitory curve and IC50 of HH calculated based on the infection rate (B) and normalized cell viability (C) (n=6). (D and E) Immunocytochemistry analysis (D) and the quantification of infection rate, cell apoptosis rate, and total cell number (E) of hNPCs on day 3 and day 6. Cells was fixed and stained with cleaved Caspase-3 (CAS3), ZIKV E and DAPI. Scale bars, 100 μm. (F) qRT-PCR analysis to monitor the total ZIKV vRNA in the supernatant of hNPC cultures on day 6. Scale bars, 200 μm. (n=3). (G) Vero cell reinfection assay to monitor the infective ZIKV vRNA in the supernatant of hNPC cultures at day 6 after ZIKV infection. Scale bars, 200 μm. (n=3). (H) Quantification of ZIKV infectious particles produced by ZIKV-infected hNPCs at day 6 by the Vero cell reinfection assay. (I) hNPCs with or without ZIKV infection treated with HH maintain hNPC marker expression and differentiation capacity. hNPCs with or without ZIKV MR766 infection were treated with 25 μM HH or DMSO for 3 days and then stained for SOX2, NESTIN and with DAPI. hNPCs with or without ZIKV infection and treated with HH or DMSO for 3 days were differentiated to cortical neurons. The cortical neurons were then fixed and stained for MAP2, TUJ1 and with DAPI. Scale bars, 100 μm. (n=3). (J) ZIKV (MR766 strain) dynamics in hNPCs. qRT-PCR analysis to quantify the total and replicating (−) strand vRNAs in the hNPCs at different time points post infection. […] (K) qRT-PCR analysis of hNPCs, on which 25 μM HH or DMSO were added at 24 h, 36 h and 48 h post-ZIKV (MR766 strain) infection and maintained for additional 3 days. p values were calculated by unpaired two-tailed Student's t-test. *p<0.05, **p<0.01 and ***p<0.001, if not mentioned specifically.
HH eliminates virus from ZIKV infected hNPCs. To determine whether the drug candidates are capable of eliminating ZIKV in previously infected hNPCs, HH or AQ was applied 2 h post ZIKV infection (FIG. 2A).
ZIKV-infected hNPCs were treated with HH or AQ for 3 days, followed by 3 days culture in drug-free medium. Immunocytochemical analysis of ZIKV E, cleaved-caspase-3 (CAS3) and DAPI were performed at day 0 (just before ZIKV infection), day 3, and day 6 to measure the ZIKV infection rate, cell death rate and total cell numbers, respectively. […] In addition, neither ZIKV vRNA, as indicated by qRT-PCR (FIG. 2F), or production of infectious ZIKV, as indicated by a Vero cell re-infection assay, was detected in day 6 supernatant of HH-treated conditions (FIGS. 2G and 2H). […] In contrast, hNPCs without HH treatment underwent significant cell death after 3 days of ZIKV infection, and there were no cells detected after cortical neuron differentiation (data not shown).
Generation of inhibitory curves. hNPCs were plated on 96-well plates with Accutase digestion at 8.5×10^4/cm^2 density and incubated overnight. For generating inhibitory curves of compound for inhibiting ZIKV infection, cells were first treated with DMSO or different doses of hit compounds for 1 h before ZIKV infection. The cells were then infected with ZIKV MR766 at a MOI=0.125. After 2 h of infection, the virus-containing medium was replaced by fresh virus-free medium and compounds were added again to the same wells. For generating inhibitory curves of compound for eliminating ZIKV, compounds were instead added after ZIKV infection. After 3 days incubation, the cells were fixed and stained for ZIKV envelope protein (ZIKV E) and DAPI was used to stain cell nuclei. Plates were analyzed with the ImageXpress^MICRO Automated High-Content Analysis System. IC50 was calculated using MasterPlex Reader Fit 2010.

[1] abbreviates: compound applied 2 h post ZIKV infection.

For `CCN(CC)Cc1cc(Nc2ccnc3cc(Cl)ccc23)ccc1O` [AQ, amodiaquine dihydrochloride dihydrate], the “ZIKV infection of hNPCs at day 6” value is “comparable to the level of infection in the DMSO control condition” and the “ZIKV infection rate of hNPCs at day 3” value is given as “undetectable levels”. Besides, the “elimination of ZIKV infection in previously infected hNPCs” value under setting [1] was “capable of eliminating ZIKV infection”.
As for `CN1CCC2=C[C@H](O)[C@H]3OC(=O)c4cc5c(cc4[C@H]3[C@@H]21)OCO5` [HH, hippeastrine hydrobromide], the “ZIKV infection of hNPCs at day 6” value is recorded as “remained undetectable” and the “ZIKV infection rate of hNPCs at day 3” value is listed as “undetectable levels”. Besides, under setting [1], the “IC50 for eliminating versus inhibiting ZIKV” value is recorded as “comparable IC50 values” and the “elimination of ZIKV infection in previously infected hNPCs” value is “capable of eliminating ZIKV infection”.
